# In patent US7759313B2, “Induction method for cell differentiation” (Obschetstvo S Ogranichennoi Otvetstvennostiyu …, priority 2002, dated 2010):
# Values joined by “and” are separate entries in the source; they are usually repeats but may differ in a detail not shown here. Equal values may be shown once. Read-outs that look alike come from different tables or passages of the source.
# How the values were obtained:
# [1] = test system: Friend erythroblastosis; assay: Friend erythroblastosis, electronic microscopy of cell types; assay type: in vivo, mice
# Description: (§1) Friend erythroblastosis which was inoculated subcutaneously to DBA2 female mice via spleen cells was investigated.
# (§2) Group 2—Reaferon at dose 100 thousand IU/kg was administered daily s.c. from day 3 to day 7 after inoculation;
# (§3) Group 3—Dicarbamine at a single dose 4.5 mg/kg was administered p.o. from day 3 to day 7 after inoculation;
# (§4) Group 4—Dicarbamine and Reaferon were administered simultaneously according to a similar scheme.
# (§5) Material for light microscopy was taken from sacrificed animals at days 3, 7 and 14 after termination of therapy or administration of a physiological saline. Material for electronic microscopy was taken at days 7 and 14.
# For electronic microscopy, tumor pieces were fixed in a 2.5% glutaraldehyde solution and 1% osmium tetroxide and embedded in EPON-812. Semi-thin and ultra-thin slices were prepared on the LKB-III ultratome (Sweden). The obtained semi-thin slices were stained with Toluidine blue and examined through the light microscope. Ultra-thin slices were additionally stained with uranyl acetate and lead citrate; the slices examined and photographed in the JEOL 1200 EX-II electronic microscope (Japan).
# The percentage of cells with different types of differentiation (blast cells, lymphocytes and granular leukocytes) was calculated during electronic microscopy for quantitative assessment.
# [2] = test system: inoculated B-16 melanoma; assay: Distribution of tumor cells by cell cycle phases (DNA content); assay type: in vivo, mice; conditions: 0.5 mg/kg intragastrically daily for 10 days
# Description: Tests were done on inoculated B-16 melanoma. The effect of Dicarbamine on the distribution of tumor cells was studied on the basis of DNA content at different times following administration of the preparation. From day 6 after the tumor inoculation mice for 10 days were daily intragastrically given with 0.5 mg/kg Dicarbamine. Animals were sacrificed with subsequent investigation of tumor material at days 10, 12, 16 and 18 after inoculation, i.e. days 5 and 7 respectively after Dicarbamine administration as well as in 2 and 4 days after termination of Dicarbamine 10-day dosing.
# [3] = test system: murine B-16 melanoma cells; assay: Initial rate of cell proliferation (IRCP), B-16 cells; assay type: cell-based
# Description: The study was conducted on two continuous cell cultures growing in the form of a monolayer in a tissue culture (on murine B-16 melanoma cells and human M-5 melanoma cells). IN was administered at concentrations 70-700 IU/ml. Dicarbamine (D) was transferred into stock solution (1.000 μM), sterilized through filters with 0.22 μm pore diameter and then diluted to concentrations 0.01 and 1.0 μM.
# The effect of preparations on cells was assessed on the basis of initial rate of cell proliferation (IRCP). This index (IRCP), which is usually called colony rate growth, was determined by numbering the number of cells in micro colonies during the first days following affection in “test” (with preparations) and “control” (without preparations) dishes, by analyzing 50 colonies in each of them. Each “point” included […] three Petri dishes with growing cell colonies in adding specific concentrations of preparations under study. Growth rate of colonies (in %) was calculated according to the formula: […]
# Cell numbers in micro colonies were calculated for every “point”. Toxicity of preparations in the selected range of concentrations was judged by cell survival, which was determined by the ratio between numbers of the colonies grown in “test” and “control” dishes.
# [4] = test system: human M-6 melanoma; assay: Human M-6 melanoma growth dynamics, Dicarbamine combined with chemotherapy; assay type: in vivo
# Description: The study was conducted according to the technique described in Example 3. Dicarbamine was administered daily p.o. at the single dose 4.5 mg/kg for 3 weeks from the moment of tumor appearance (from day 15 to day 36). In the groups of combined treatment Dicarbamine was also administered daily at the single dose 4.5 mg/kg for 3 weeks (days 15-36) in combination with a single administration of anti-tumor cytostatic agents Cysplatin at dose 6 mg/kg i.v. (day 25) and Aranoza at dose 40 mg/kg i.p. (day 27). Cytostatic therapy with was commenced when the average tumor volume reached 200±62 mm^3. At days 18, 25, 33, 39, 46 and 53 from the transplantation tumor volumes were measured and the value Vt/Vt−1 was calculated and expressed as a percentage.
# [5] = test system: Friend erythroblastosis; assay: Friend erythroblastosis, histological examination; assay type: in vivo, mice
# Description: as §1, §2, §3, §4, §5
# For histological examination, tumor pieces were fixed in 10% neutral formalin and imbedded into paraffin; slices obtained were stained with hematoxylin-eosin and examined for glycogen (polysaccharide) content using the periodic acid Schiff reaction, for RNA content according to Brachet, and for lipids and iron. Slices were examined and photographed using a Polivar light microscope (Austria).
# The percentage of mitoses and cells with apoptosis, as well as areas of necrosis, were assessed during histological examination.
# [6] = test system: stage III-IV ovarian cancer; assay: Efficacy of therapy after two chemotherapy courses; assay type: in vivo, human
# Description: Efficacy of therapy was assessed in groups of patients following two courses of the chemotherapy with or without Dicarbamine according to the above described scheme. Efficacy was assessed according to the generally accepted parameters: CR—complete remission, PR—partial remission, SB—stabilization; and Progr. —progression.
# [7] = Dicarbamine 4.5 mg/kg p.o. days 3-7
smiles,measurement,setting,value
O=C(O)CCCC(=O)NCCc1c[nH]cn1 [Dicarbamine],decrease of the quantity of immature tumor cells vs control,[1]; Dicarbamine 4.5 mg/kg,15-20%
same,increase of the quantity of lymphocytes vs control,[1]; Dicarbamine 4.5 mg/kg,4 fold
same,number of lymphocytes,[1]; Dicarbamine + Reaferon,18-25%
same,quantity of large blast type cells,[1]; Dicarbamine + Reaferon,70-80%
same,quantity of leukocytes (granular),[1]; Dicarbamine + Reaferon,2-5%
same,quantity of granulocytes (granular leukocytes),[1]; single agent,2-5%
same,quantity of lymphocytes (lymphoid cells),[1]; single agent,18-25%
same,quantity of large blast type cells,"[1]; single agent (Dicarbamine 4.5 mg/kg p.o. or Reaferon 100 thousand IU/kg s.c., days 3-7)",70-80%
same,Terms of death,CPH 50 + Cysplatin 2 mg/kg,no
same,Total leukocyte number,"CPH 50 + Cysplatin 2 mg/kg, day 0",11.30 ± 2.30 thousand in mm^3
same,Total leukocyte number,"CPH 50 + Cysplatin 2 mg/kg, day 3",6.70 ± 1.15 thousand in mm^3
same,Total leukocyte number,"CPH 50 + Cysplatin 2 mg/kg, day 5",17.00 ± 5.17 thousand in mm^3
same,Total leukocyte number,"CPH 50 + Cysplatin 2 mg/kg, day 7",14.50 ± 2.00 thousand in mm^3
same,Total leukocyte number,"CPH 50 + Cysplatin 2 mg/kg, day 21",12.40 ± 0.99 thousand in mm^3
same,Terms of death,CPH 100 + Cysplatin 4 mg/kg,no
same,Total leukocyte number,"CPH 100 + Cysplatin 4 mg/kg, day 0",11.30 ± 2.30 thousand in mm^3
same,Total leukocyte number,"CPH 100 + Cysplatin 4 mg/kg, day 3",4.14 ± 0.60 thousand in mm^3
same,Total leukocyte number,"CPH 100 + Cysplatin 4 mg/kg, day 5",11.40 ± 1.10 thousand in mm^3
same,Total leukocyte number,"CPH 100 + Cysplatin 4 mg/kg, day 7",14.90 ± 1.32 thousand in mm^3
same,Total leukocyte number,"CPH 100 + Cysplatin 4 mg/kg, day 21",11.80 ± 1.32 thousand in mm^3
same,Total leukocyte number,"CPH 200 + Cysplatin 8 mg/kg i.p. once (Dicarbamine group: 0.5 mg/kg daily 20 days), day 0",11.30 ± 2.30 thousand in mm^3
same,Total leukocyte number,"CPH 200 + Cysplatin 8 mg/kg, day 3",2.32 ± 0.49 thousand in mm^3
same,Total leukocyte number,"CPH 200 + Cysplatin 8 mg/kg, day 5",6.60 ± 0.90 thousand in mm^3
same,Total leukocyte number,"CPH 200 + Cysplatin 8 mg/kg, day 7",10.40 ± 1.54 thousand in mm^3
same,Total leukocyte number,"mouse, in vivo",12.30 ± 1.56 thousand in mm^3
same,increase in the portion of IIG^2 cells,[2],12-14%
same,increase of the portion of interphase tumor cells (IIG^1),[2],≈ 25%
same,portion of proliferating cells (constant),[2],≈ 30%
same,toxicity according to the survival index,[3]; B-16 cells,does not show toxicity
same,Initial rate of cell proliferation,"[3]; D 0.01 μM, 48 hours",52.9%
same,Initial rate of cell proliferation,"[3]; D 0.01 μM, 72 hours",61.0%
same,Initial rate of cell proliferation,"[3]; D 1.0 μM, 48 hours",44.6%
same,Initial rate of cell proliferation,"[3]; D 1.0 μM, 72 hours",44.6% and 43.6%
same,Initial rate of cell proliferation,"[3]; IN 70.0 IU/ml + D 1.0 μM, 72 hours",26.1%
same,Initial rate of cell proliferation,"[3]; IN 700.0 IU/ml + D 0.01 μM, 48 hours",24.9%
same,Initial rate of cell proliferation,"[3]; IN 700.0 IU/ml + D 0.01 μM, 72 hours",22.0%
same,Initial rate of cell proliferation,"[3]; IN 700.0 IU/ml + D 1.0 μM, 48 hours",21.5%
same,Initial rate of cell proliferation,"[3]; IN 700.0 IU/ml + D 1.0 μM, 72 hours",16.0%
same,"Vt/Vt−1, M ± m","[4]; Dicarbamine 4.5 mg/kg p.o. days 15-36 + Cysplatin 6 mg/kg i.v. + Aranoza 40 mg/kg i.p., 25 Day",182.0±60.0% and 182.0 + 60.0** %
same,"Vt/Vt−1, M ± m","[4]; Dicarbamine + Cysplatin + Aranoza, 33 Day",191.0 + 71.0%
same,"Vt/Vt−1, M ± m","[4]; Dicarbamine + Cysplatin + Aranoza, 39 Day",24.5 + 17.4%
same,"Vt/Vt−1, M ± m","[4]; Dicarbamine + Cysplatin + Aranoza, 46 Day",28.7 + 9.8%
same,"Vt/Vt−1, M ± m","[4]; Dicarbamine + Cysplatin + Aranoza, 53 Day",8.0 + 30.6%
same,"Vt/Vt−1, M ± m","[4]; Dicarbamine alone 4.5/94.5 mg/kg p.o. days 15-36, 25 Day",166.0±93.0%
same,"Vt/Vt−1, M ± m","[4]; Dicarbamine alone, 33 Day",276.0 ± 104.0%
same,"Vt/Vt−1, M ± m","[4]; Dicarbamine alone, 39 Day",39.8 ± 27.3%
same,"Vt/Vt−1, M ± m","[4]; Dicarbamine alone, 46 Day",19.6 ± 17.5%
same,"Vt/Vt−1, M ± m","[4]; Dicarbamine alone, 53 Day",4.2 + 22.5%
same,Apoptosis,"[5]; Dicarbamine 4.5 mg/kg p.o. + Reaferon 100 thousand IU/kg s.c., day 3",0.2-0.5%
same,area of necrosis as compared to group I (control),[5]; [7],did not significantly change
same,mitotic activity as compared to the control,[5]; [7],remained within the limits of the control figures
same,area of necrosis and mitotic activity as compared to group II (Reaferon),[5]; Dicarbamine + Reaferon,did not show significant shifts
same,Apoptosis,"[5]; Dicarbamine + Reaferon, days 7 and 14",0.5%
same,CR,[6],26.6%
same,"CR, number of patients",[6],4
same,PR,[6],46.6%
same,"PR, number of patients",[6],7
same,Progr.,[6],13.3%
same,"Progr., number of patients",[6],2
same,SB,[6],13.5%
same,"SB, number of patients",[6],2
same,tumor growth control (CR+PR),[6],73.2%
